According to patent US10314909B2, “Combination therapy comprising an MMP-14 binding protein” (DYAX CORP., priority 2011, dated 2019):

Assays:
Type in all cases: in vivo
[1] = system: A375 human melanoma xenograft; assay: subcutaneous A375 human melanoma xenograft model, tumor size; settings: BALB/c nude mice, s.c. A375, DX-2400 20 mg/kg i.v. Q3D X6; for tumor volume: darcabazine 150 mg/kg i.p. Day 1, 4/wk x 3, compared to untreated mice (FIG. 1); for tumor growth rate: darcabazine 150 mg/kg i.p., compared to untreated mice
Method: The in vivo therapeutic efficacy of DX-2400 as a single agent or in combination with darcabazine was determined using a subcutaneous A375 human melanoma xenograft model.
(§1) A375 tumor cells were maintained in vitro as a monolayer culture in DMEM medium, supplemented with 10% heat inactivated fetal bovine serum, 100 U/ml penicillin and 100 μg/ml streptomycin, and L-glutamine (2 mM) at 37° C. in an atmosphere of 5% CO2 in air. The tumor cells were routinely subcultured twice weekly by trypsin-EDTA treatment. The cells growing in an exponential growth phase were harvested and counted for tumor inoculation.
(§2) 55 BALB/c nude, female, 6-8 weeks, weighing approximately 18-22 were purchased from Shanghai Laboratory Animal Center SLAC (Shanghai, China) for use in the study (40 mice+˜40% spare). Each mouse was inoculated subcutaneously at the right flank with A375 tumor cells (5×10^6) in 0.1 ml of PBS for tumor development. The treatments were started when the mean tumor size reached approximately 150˜200 mm^3. Each group consisted of 10 mice.
(§3) The major endpoint is to see if the tumor growth can be delayed or tumor bearing mice can be cured. Tumor sizes were measured twice weekly in two dimensions using a caliper, and the volume was expressed in mm^3 using the formula: V=0.5 a×b^2 where a and b are the long and short diameters of the tumor, respectively. The tumor sizes were then used for the calculations of both T-C and T/C values. T-C is calculated with T as the time (in days) required for the mean tumor size of the treatment group to reach a predetermined size (e.g., 1000 mm^3), and C is the time (in days) for the mean tumor size of the control group to reach the same size. The T/C value (in percent) is an indication of antitumor effectiveness, T and C are the mean volume of the treated and control groups, respectively, on a given day.

[2] = system: Panc-1 human pancreas cancer xenograft; assay: subcutaneous Panc-1 human pancreas cancer xenograft model, tumor size; settings: BALB/c nude mice, s.c. Panc-1; DX-2400 20 mg/kg i.v. Q3D X6; gemcitabine 50 mg/kg i.p. Q3D X4; compared to untreated mice (FIG. 4A)
Method: The in vivo therapeutic efficacy of DX-2400 as a single agent or in combination with gemcitabine was evaluated in the treatment of a subcutaneous Panc-1 human pancreas cancer xenograft model.
as §1, with “Panc-1 tumor cells” for “A375 tumor cells”, “tumor cells will be routinely subcultured” for “tumor cells were routinely subcultured”, “growth phase will be harvested and” for “growth phase were harvested and”
A total of 56 (40 plus 40% spare) BALB/c nude, female, 6-8 weeks, weighing approximately 18-22 g were purchased from Shanghai Laboratory Animal Center SLAC (Shanghai, China) for use in the study. […]
as §3, with “The tumor sizes were then used for the calculations of both T-C and T/C values.” left out, “The T/C value (in percent) is an indication of antitumor effectiveness, T and C are the mean volume of the treated and control groups, respectively, on a given day.” left out

[3] = system: primary human pancreatic cancer PAM527 xenograft; assay: subcutaneous primary human pancreatic cancer PAM527 xenograft model in nude mice, tumor size; settings: BALB/c nude mice, s.c. PAM527 tumor fragment; DX-2400 20 mg/kg i.v. Q3d x 6; gemcitabine 60 mg/kg i.p. Q4d x 4; compared to untreated mice (FIG. 3A)
Method: The in vivo anti-tumor activity of DX-2400 as a single agent or in combination with gemcitabine was evaluated in the treatment of subcutaneous primary human pancreatic cancer using a PAM527 xenograft model in nude mice.
75 BALB/c nude mice, female, 6-8 weeks, weighing approximately 18-24 g were purchased from SLAC, Shanghai, P. R. China (40 mice+˜90% spare). Tumor fragments from seed mice inoculated with selected primary human pancreatic cancer tissues (PAM527) were harvested and used for inoculation into BALB/c nude mice. Each mouse was inoculated subcutaneously at the right flank with one tumor fragment (2-3 mm in diameter) for tumor development. The treatments were started when the mean tumor size reached approximately 150 mm^3. Each group consisted of 10 mice.
as §3, with “The tumor sizes were then used for the calculations of both T-C and T/C values.” left out, “The T/C value (in percent) is an indication of antitumor effectiveness, T and C are the mean volume of the treated and control groups, respectively, on a given day.” left out

[4] = system: SK-MEL-5 human melanoma xenograft; assay: subcutaneous SK-MEL-5 human melanoma xenograft model, tumor size; settings: BALB/c nude mice, s.c. SK-MEL-5, DX-2400 20 mg/kg i.v. Q3D X6, paclitaxel 8 mg/kg i.p. Q4D X6; for tumor growth rate: compared to untreated mice; for tumor volume: compared to untreated mice (FIG. 2)
Method: The in vivo therapeutic efficacy of DX-2400 as a single agent or in combination with Paclitaxel in the treatment of human melanoma was evaluated using a subcutaneous SK-MEL-5 human melanoma xenograft model.
SK-MEL-5 human melanoma cells were grown in EMEM medium, supplemented with 10% heat inactivated fetal bovine serum, 100 U/ml penicillin and 100 μg/ml streptomycin at 37° C. in an atmosphere of 5% CO2 in air. The tumor cells were routinely subcultured twice weekly. Cells were harvested during the logarithmic growth period and resuspended in physical PBS with proper cell concentration and kept on ice for tumor induction.
as §2, with “18-22 g (40 mice+˜40% spare) were used for the study. Animals” for “18-22”, “China, Shanghai).” for “China) for use in the study (40 mice+˜40% spare).”, “SK-MEL-5” for “A375”
as §3

Row | Molecule | tumor volume [1] | tumor growth rate [1] | mean tumor size [2] | mean tumor size [3] | tumor growth rate [4] | tumor volume [4]
1 | CN(C)/N=N/c1[nH]cnc1C(N)=O [darcabazine, dacarbazine] | reduced tumor volume | caused a reduction in tumor growth rate |  |  |  | 
2 | Nc1ccn([C@@H]2O[C@H](CO)[C@@H](O)C2(F)F)c(=O)n1 [gemcitabine] |  |  | reduced the tumor size | reduced the tumor size |  | 
3 | CC(=O)O[C@H]1C(=O)[C@@]2(C)[C@H]([C@H](OC(=O)c3ccccc3)[C@]3(O)C[C@H](OC(=O)[C@H](O)[C@@H](NC(=O)c4ccccc4)c4ccccc4)C(C)=C1C3(C)C)[C@]1(OC(C)=O)CO[C@@H]1C[C@@H]2O [paclitaxel] |  |  |  |  | caused a reduction in tumor growth rate | reduced tumor volume
4 | DX-2400: human anti-MMP-14 antibody, light and heavy chains of M0038-F01; VH SEQ ID NO: 51, VL SEQ ID NO: 52 (antibody, listed as Homo sapiens, V domains shown) VH: EVQLLESGGGLVQPGGSLRLSCAASGFTFSLYSMNWVRQAPGKGLEWVSSIYSSGGSTLYADSVKGRFTISRDNSKNTLYLQMNSLRAEDTAVYYCARGRAFDIWGQGTMVTVSS VL: DIQMTQSPSSLSASVGDRVTITCRASQSVGTYLNWYQQKPGKAPKLLIYATSNLRSGVPSRFSGSGSGTDFTLTISSLQPEDFATYYCQQSYSIPRFTFGPGTKVDIK | reduced tumor volume | caused a reduction in the tumor growth rate | reduced the mean tumor size | reduced the mean tumor size | caused a reduction in the tumor growth rate | reduced tumor volume
